Assay results from patent US12286429B2, “5-oxo-1,2,3,5,8,8a-hexahydroindolizine-3-carboxamide derivatives useful as a factor XIa inhibitors” (Janssen Pharmaceutica NV, priority 2021, dated 2025).

How the values were obtained:
[1] = molecular target: Factor XIa (Homo sapiens, UniProt P03951); assay: Factor XIa inhibition assay utilizing a fluorophore-quencher pair peptide substrate (FLINT); assay type: biochemical; settings: 11-point, 3-fold serial dilution, top 100 nM; 30 min preincubation; 15 μM 5Fam-KLTRAETV-K5Tamra substrate; kinetic reads over 30 min; read-out: FXIa Inhibition IC50
Chain of Factor XIa (P03951 388-625 limits assumed): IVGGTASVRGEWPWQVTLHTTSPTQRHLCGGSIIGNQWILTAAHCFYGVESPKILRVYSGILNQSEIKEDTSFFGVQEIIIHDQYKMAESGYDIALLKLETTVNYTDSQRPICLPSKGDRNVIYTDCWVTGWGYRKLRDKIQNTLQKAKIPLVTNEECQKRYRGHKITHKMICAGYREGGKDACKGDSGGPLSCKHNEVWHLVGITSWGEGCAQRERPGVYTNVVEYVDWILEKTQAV
Chain of Factor XIa (P03951 19-387 partner limits assumed): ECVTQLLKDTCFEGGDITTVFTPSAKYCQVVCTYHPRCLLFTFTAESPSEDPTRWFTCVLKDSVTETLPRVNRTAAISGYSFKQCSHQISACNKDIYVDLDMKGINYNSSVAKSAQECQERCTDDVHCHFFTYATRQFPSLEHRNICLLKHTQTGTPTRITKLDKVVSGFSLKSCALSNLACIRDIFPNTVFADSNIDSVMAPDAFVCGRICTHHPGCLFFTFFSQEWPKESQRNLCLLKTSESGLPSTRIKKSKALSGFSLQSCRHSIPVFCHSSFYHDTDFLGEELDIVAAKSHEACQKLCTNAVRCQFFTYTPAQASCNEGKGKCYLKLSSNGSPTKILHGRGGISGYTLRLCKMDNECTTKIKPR
Summary of the method: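 FXIa ([…]) preincubated 30 min with compound (11-point, 3-fold, top 100 nM, 2% DMSO) in Tris pH 7.5, NaCl, CaCl2, BSA, CHAPS; 15 μM 5Fam-KLTRAETV-K5Tamra substrate then added. Fluorescence (485/520 nm) read kinetically over 30 min at room temperature; IC50 by 4-parameter fit.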

[2] = molecular target: human plasma kallikrein (Homo sapiens, UniProt P03952); assay: Kallikrein inhibition assay utilizing a quenched AMC peptide substrate (FLINT); assay type: biochemical; settings: 11-point, 3-fold serial dilution, top 1 μM; 30 min preincubation; 2 nM kallikrein; 50 μM Z-Gly-Pro-Arg-AMC; kinetic reads over 30 min
Chain of human plasma kallikrein (P03952 391-638 limits assumed): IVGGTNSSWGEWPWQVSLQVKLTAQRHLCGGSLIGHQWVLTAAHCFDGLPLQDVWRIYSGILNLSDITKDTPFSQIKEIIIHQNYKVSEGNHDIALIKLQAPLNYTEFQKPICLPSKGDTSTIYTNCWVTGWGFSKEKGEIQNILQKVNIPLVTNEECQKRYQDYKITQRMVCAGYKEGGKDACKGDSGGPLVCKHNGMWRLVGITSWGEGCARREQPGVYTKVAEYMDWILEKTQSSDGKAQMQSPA
Chain of human plasma kallikrein (P03952 20-390 partner limits assumed): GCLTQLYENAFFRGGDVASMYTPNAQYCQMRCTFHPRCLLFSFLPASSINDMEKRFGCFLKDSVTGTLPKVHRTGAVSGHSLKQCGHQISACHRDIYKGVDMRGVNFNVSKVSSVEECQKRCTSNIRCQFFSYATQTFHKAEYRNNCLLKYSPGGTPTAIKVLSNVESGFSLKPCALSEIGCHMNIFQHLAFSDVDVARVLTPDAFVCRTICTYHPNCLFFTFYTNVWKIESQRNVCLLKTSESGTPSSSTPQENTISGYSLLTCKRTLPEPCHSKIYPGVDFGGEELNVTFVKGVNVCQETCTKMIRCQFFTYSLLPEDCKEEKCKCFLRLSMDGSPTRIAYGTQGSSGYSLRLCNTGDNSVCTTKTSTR
Summary of the method: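 Human plasma kallikrein (2 nM final) was pre-incubated 30 min at room temperature with compound (11-point 3-fold series, top 1 μM, 2% DMSO) in Tris pH 7.5, NaCl, CaCl2, BSA, CHAPS buffer. Reaction started with 50 μM Z-Gly-Pro-Arg-AMC (KM 40 μM), and fluorescence (340/440 nm) was read kinetically over 30 min. IC50 came from a 4-parameter logistic fit.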

Structure (SMILES)	IC50 [1]	IC50 [2]
CC1(C)C[C@@H](C(=O)Nc2ccc3nccnc3c2)N2C(=O)C=C(c3c(-n4cnnn4)ccc(Cl)c3F)CC21 (single isomer, unassigned) [ID No. 59, (3S,8aR*)-7-[3-Chloro-2-fluoro-6-(tetrazol-1-yl)phenyl]-1,1-dimethyl-5-oxo-N-quinoxalin-6-yl-2,3,8,8a-tetrahydroindolizine-3-carboxamide]	82.9 nM	38.8 nM
Nc1noc2cc(NC(=O)[C@@H]3CCC4CC(c5c(-n6cnnn6)ccc(Cl)c5F)=CC(=O)N43)ccc12 (single isomer, unassigned) [ID No. 60, (3S,8aR*)—N-(3-Amino-1,2-benzoxazol-6-yl)-7-[3-chloro-2-fluoro-6-(tetrazol-1-yl)phenyl]-5-oxo-2,3,8,8a-tetrahydro-1H-indolizine-3-carboxamide]	6.7 nM	29.7 nM
Nc1noc2cc(NC(=O)[C@@H]3CCC4CC(c5c(-n6cnnn6)ccc(Cl)c5F)=CC(=O)N43)ccc12 (single isomer, unassigned) [ID No. 61, (3S,8aS*)—N-(3-Amino-1,2-benzoxazol-6-yl)-7-[3-chloro-2-fluoro-6-(tetrazol-1-yl)phenyl]-5-oxo-2,3,8,8a-tetrahydro-1H-indolizine-3-carboxamide]	8.9 nM	52.6 nM
CC1(C)C[C@@H](C(=O)Nc2ccc3nccnc3c2)N2C(=O)C=C(c3c(-n4cnnn4)ccc(Cl)c3F)CC21 (single isomer, unassigned) [ID No. 62, (3S,8aS*)-7-[3-Chloro-2-fluoro-6-(tetrazol-1-yl)phenyl]-1,1-dimethyl-5-oxo-N-quinoxalin-6-yl-2,3,8,8a-tetrahydroindolizine-3-carboxamide]	13.3 nM	17.2 nM
O=C(Nc1ccc(-c2nc(=O)o[nH]2)cc1)[C@@H]1CCC2CC(c3c(-n4cnnn4)ccc(Cl)c3F)=CC(=O)N21 (single isomer, unassigned) [ID No. 63, (3S,8aR*)-7-[3-Chloro-2-fluoro-6-(tetrazol-1-yl)phenyl]-5-oxo-N-[4-(5-oxo-2H-1,2,4-oxadiazol-3-yl)phenyl]-2,3,8,8a-tetrahydro-1H-indolizine-3-carboxamide]	0.6 nM	20.3 nM
O=C(Nc1ccc(-c2nnn[nH]2)cc1)[C@@H]1CC[C@H]2CC(c3c(-n4cnnn4)ccc(Cl)c3F)=CC(=O)N21 (single isomer, unassigned) [ID No. 65, (3S,8aS*)-7-[3-Chloro-2-fluoro-6-(tetrazol-1-yl)phenyl]-5-oxo-N-[4-(1H-tetrazol-5-yl)phenyl]-2,3,8,8a-tetrahydro-1_H-indolizine-3-carboxamide]	1.9 nM	36.6 nM
O=C(Nc1ccc(-c2nnn[nH]2)cc1)[C@@H]1CCC2CC(c3c(-n4cnnn4)ccc(Cl)c3F)=CC(=O)N21 (single isomer, unassigned) [ID No. 66, (3S,8aR*)-7-[3-Chloro-2-fluoro-6-(tetrazol-1-yl)phenyl]-5-oxo-N-[4-(1H-tetrazol-5-yl)phenyl]-2,3,8,8a-tetrahydro-1H-indolizine-3-carboxamide]	0.8 nM	19.2 nM
C[C@H]1C[C@@H](C(=O)Nc2ccc3nccnc3c2)N2C(=O)C=C(c3c(-n4cnnn4)ccc(Cl)c3F)C[C@@H]12 (single isomer, unassigned) [ID No. 79, (1S*,3S,8aS*)-7-[3-Chloro-2-fluoro-6-(tetrazol-1-yl)phenyl]-1-methyl-5-oxo-N-quinoxalin-6-yl-2,3,8,8a-tetrahydro-1H-indolizine-3-carboxamide]	3.9 nM	7.5 nM
C[C@H]1C[C@@H](C(=O)Nc2ccc3nccnc3c2)N2C(=O)C=C(c3c(-n4cnnn4)ccc(Cl)c3F)C[C@H]12 (single isomer, unassigned) [ID No. 80, (1S*,3S,8aR*)-7-[3-Chloro-2-fluoro-6-(tetrazol-1-yl)phenyl]-1-methyl-5-oxo-N-quinoxalin-6-yl-2,3,8,8a-tetrahydro-1H-indolizine-3-carboxamide]	45.9 nM	59.5 nM
Nc1ccc2cc(NC(=O)[C@@H]3CC[C@@H]4CC(c5c(-n6cnnn6)ccc(Cl)c5F)=CC(=O)N43)ccc2n1 [ID No. 6, (3S,8aR)—N-(2-Aminoquinolin-6-yl)-7-(3-chloro-2-fluoro-6-(1H-tetrazol-1-yl)phenyl)-5-oxo-1,2,3,5,8,8a-hexahydroindolizine-3-carboxamide]	8 nM	14.3 nM
CC1(C)C(=O)Nc2ccc(NC(=O)[C@@H]3CC[C@@H]4CC(c5c(-n6cnnn6)ccc(Cl)c5F)=CC(=O)N43)cc21 [ID No. 7, (3S,8aR)-7-(3-Chloro-2-fluoro-6-(1H-tetrazol-1-yl)phenyl)-N-(3,3-dimethyl-2-oxoindolin-5-yl)-5-oxo-1,2,3,5,8,8a-hexahydroindolizine-3-carboxamide]	65 nM	131 nM
O=C(Nc1ccc2c(c1)C1(CCCC1)C(=O)N2)[C@@H]1CC[C@@H]2CC(c3c(-n4cnnn4)ccc(Cl)c3F)=CC(=O)N21 [ID No. 8, (3S,8aR)-7-(3-Chloro-2-fluoro-6-(1H-tetrazol-1-yl)phenyl)-5-oxo-N-(2′-oxospiro[cyclopentane-1,3′-indolin]-5′-yl)-1,2,3,5,8,8a-hexahydroindolizine-3-carboxamide]	62.1 nM	178 nM
O=C(Nc1ccc2nccc(O)c2c1)[C@@H]1CC[C@@H]2CC(c3c(-n4cnnn4)ccc(Cl)c3F)=CC(=O)N21 [ID No. 9, (3S,8aR)-7-(3-Chloro-2-fluoro-6-(1H-tetrazol-1-yl)phenyl)-N-(4-hydroxyquinolin-6-yl)-5-oxo-1,2,3,5,8,8a-hexahydroindolizine-3-carboxamide]	16.6 nM	20.2 nM
O=C(Nc1ccc2ncc(F)cc2c1)[C@@H]1CC[C@@H]2CC(c3c(-n4cnnn4)ccc(Cl)c3F)=CC(=O)N21 [ID No. 10, (3S,8aR)-7-(3-Chloro-2-fluoro-6-(1H-tetrazol-1-yl)phenyl)-N-(3-fluoroquinolin-6-yl)-5-oxo-1,2,3,5,8,8a-hexahydroindolizine-3-carboxamide]	10.8 nM	22.5 nM
CN(C)c1ccc2cc(NC(=O)[C@@H]3CC[C@@H]4CC(c5c(-n6cnnn6)ccc(Cl)c5F)=CC(=O)N43)ccc2n1 [ID No. 11, (3S,8aR)-7-(3-Chloro-2-fluoro-6-(1H-tetrazol-1-yl)phenyl)-N-(2-(dimethylamino)quinolin-6-yl)-5-oxo-1,2,3,5,8,8a-hexahydroindolizine-3-carboxamide]	38.8 nM	66.2 nM
O=C1Cc2cc(NC(=O)[C@@H]3CC[C@@H]4CC(c5c(-n6cnnn6)ccc(Cl)c5F)=CC(=O)N43)ccc2N1 [ID No. 12, (3S,8aR)-7-(3-Chloro-2-fluoro-6-(1H-tetrazol-1-yl)phenyl)-5-oxo-N-(2-oxoindolin-5-yl)-1,2,3,5,8,8a-hexahydroindolizine-3-carboxamide]	18.2 nM	71.7 nM
O=C1CCc2cc(NC(=O)[C@@H]3CC[C@@H]4CC(c5c(-n6cnnn6)ccc(Cl)c5F)=CC(=O)N43)ccc2N1 [ID No. 13]	12.9 nM	68.4 nM
CCn1cnc2ccc(NC(=O)[C@@H]3CC[C@@H]4CC(c5c(-n6cnnn6)ccc(Cl)c5F)=CC(=O)N43)cc2c1=O [ID No. 14, (3S,8aR)-7-(3-Chloro-2-fluoro-6-(1H-tetrazol-1-yl)phenyl)-N-(3-ethyl-4-oxo-3,4-dihydroquinazolin-6-yl)-5-oxo-1,2,3,5,8,8a-hexahydroindolizine-3-carboxamide]	22.7 nM	59.6 nM
O=C(Nc1ccc2c(c1)C(F)(F)C(=O)N2)[C@@H]1CC[C@@H]2CC(c3c(-n4cnnn4)ccc(Cl)c3F)=CC(=O)N21 [ID No. 15, (3S,8aR)-7-(3-Chloro-2-fluoro-6-(1H-tetrazol-1-yl)phenyl)-N-(3,3-difluoro-2-oxoindolin-5-yl)-5-oxo-1,2,3,5,8,8a-hexahydroindolizine-3-carboxamide]	36.8 nM	55.7 nM
Cn1nc2ccc(NC(=O)[C@@H]3CC[C@@H]4CC(c5c(-n6cnnn6)ccc(Cl)c5F)=CC(=O)N43)cc2n1 [ID No. 16, (3S,8aR)-7-(3-Chloro-2-fluoro-6-(1H-tetrazol-1-yl)phenyl)-N-(2-methyl-2H-benzo[d][1,2,3]triazol-5-yl)-5-oxo-1,2,3,5,8,8a-hexahydroindolizine-3-carboxamide]	25 nM	45.3 nM
O=C(Nc1ccc(-c2noc(=O)[nH]2)cc1)[C@@H]1CC[C@@H]2CC(c3c(-n4cnnn4)ccc(Cl)c3F)=CC(=O)N21 [ID No. 17, (3S,8aR)-7-(3-Chloro-2-fluoro-6-(1H-tetrazol-1-yl)phenyl)-5-oxo-N-(4-(5-oxo-4,5-dihydro-1,2,4-oxadiazol-3-yl)phenyl)-1,2,3,5,8,8a-hexahydroindolizine-3-carboxamide]	3.4 nM	60.1 nM
O=C(Nc1ccc2nc[nH]c(=O)c2c1)[C@@H]1CC[C@@H]2CC(c3c(-n4cnnn4)ccc(Cl)c3F)=CC(=O)N21 [ID No. 18, (3S,8aR)-7-(3-Chloro-2-fluoro-6-(1H-tetrazol-1-yl)phenyl)-5-oxo-N-(4-oxo-3,4-dihydroquinazolin-6-yl)-1,2,3,5,8,8a-hexahydroindolizine-3-carboxamide]	6.1 nM	9.2 nM
Cn1cc2cc(NC(=O)[C@@H]3CC[C@@H]4CC(c5c(-n6cnnn6)ccc(Cl)c5F)=CC(=O)N43)ccc2n1 [ID No. 19, (3S,8aR)-7-(3-Chloro-2-fluoro-6-(1H-tetrazol-1-yl)phenyl)-N-(2-methyl-2H-indazol-5-yl)-5-oxo-1,2,3,5,8,8a-hexahydroindolizine-3-carboxamide]	39.4 nM	169 nM
